These results are taken from paper PMC2860877 (Bioorganic & medicinal chemistry, 2008).

Assay [1] deals with T1, epitope-tagged (histidine6) recombinant MKP-1 (Homo sapiens, UniProt P28562).
T1 sequence (P28562 1-367): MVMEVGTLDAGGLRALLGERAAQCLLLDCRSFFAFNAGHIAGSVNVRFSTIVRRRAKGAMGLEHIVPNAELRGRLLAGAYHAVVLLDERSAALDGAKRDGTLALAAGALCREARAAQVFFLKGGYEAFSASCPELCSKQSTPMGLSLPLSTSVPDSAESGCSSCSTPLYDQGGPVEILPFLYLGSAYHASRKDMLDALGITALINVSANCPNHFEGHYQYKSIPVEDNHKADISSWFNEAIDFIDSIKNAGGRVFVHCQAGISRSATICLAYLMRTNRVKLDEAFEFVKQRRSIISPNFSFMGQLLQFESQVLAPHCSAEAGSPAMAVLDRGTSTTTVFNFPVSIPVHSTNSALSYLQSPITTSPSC
In words: MKP-1 phosphatase inhibition. The format is biochemical.

Assay [2] concerns the target T2, epitope-tagged (histidine6) catalytic domain of human recombinant Cdc25B (Homo sapiens, UniProt P30305).
T2 sequence (P30305 275-539 isoform P30305-3): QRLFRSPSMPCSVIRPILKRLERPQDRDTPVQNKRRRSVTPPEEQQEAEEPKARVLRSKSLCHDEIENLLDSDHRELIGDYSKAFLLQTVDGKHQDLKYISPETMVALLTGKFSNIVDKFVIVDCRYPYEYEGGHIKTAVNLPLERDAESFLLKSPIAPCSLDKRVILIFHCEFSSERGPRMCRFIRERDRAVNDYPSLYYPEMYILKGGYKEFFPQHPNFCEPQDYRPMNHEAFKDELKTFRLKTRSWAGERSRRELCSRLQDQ
In words: Cdc25B phosphatase inhibition, catalytic domain. The format is biochemical. Conditions: for Cdc25B activity in words: structure-activity discussion; for selectivity for Cdc25B as opposed to MKP-1 and MKP-3, in words: comparison of Cdc25B, MKP-1, MKP-3 assays.

On to `O=C1c2cc3c(cc2C(=O)C2OC12)CCCC3` (centres unmarked) [Compound 8], for which the IC50 in assay [1] is > 50 µM.
As for `O=C1C=CC(=O)C=C1` [Compound 10, 1,4-benzoquinone], the “Cdc25B activity in words” value in assay [2] is “complete loss of enzyme activity”. Further, the IC50 in assay [1] was > 50 µM.
As to `O=C1c2ccccc2C(=O)c2ccccc21` [Compound 12, 9,10-anthraquinone], in assay [1], the concentration for half-maximal inhibition (IC50) was > 50 µM.
In the case of `O=C1C2=C(C(=O)c3ccccc31)S(=O)(=O)CCN2` [Compound 16], the “selectivity for Cdc25B as opposed to MKP-1 and MKP-3, in words” value (shortened to “selectivity for Cdc25B as opposed”) in assay [2] is listed as “moderately selective for Cdc25B”.
On to `O=C1C2=C(C(=O)c3c(O)cccc31)S(=O)(=O)CCN2` [Compound 17], for which the “selectivity for Cdc25B as opposed” value in assay [2] is on record as “moderately selective for Cdc25B”.
As to `O=C1C=C(NCCO)C(=O)c2ccccc21` [Compound 18], the “Cdc25B activity in words” value in assay [2] is given as “complete loss of activity”. Besides, the IC50 in assay [1] is > 50 µM.
`CC1=C(NCCO)C(=O)c2ccccc2C1=O` [Compound 19]: in assay [2], the “Cdc25B activity in words” value is “complete loss of activity”. In addition, the IC50 in assay [1] was > 50 µM.
For `CCOC1=CC(=O)C(=O)c2ccccc21` [Compound 20], the “selectivity for Cdc25B as opposed” value in assay [2] is “relatively non-selective”.

The IC50 is the concentration that inhibits the measured activity by half.
